# Counter-ions that a name gives are not always drawn. Like-named read-outs stand apart in the source and are kept apart here.
# Legend:
# [1] = tested on: animals; settings: cited from earlier work
# [2] = tested on: food or carbohydrate craving in patients; test: Low-dose naltrexone patient study: subjective naltrexone efficacy rating (zero to ten) on food or carbohydrate craving; format: in vivo, human; settings: obese person
# [3] = tested on: carbohydrate craving in patients; test: Timing of naltrexone action on carbohydrate craving in patients (onset, duration); format: in vivo, human
# Experimental: Naltrexone is preferably administered to act at the time(s) of day when overeating or carbohydrate craving occurs. Naltrexone usually starts working about 3–4 hours after it is taken and continues to work for about six hours, but this timing varies from person to person. If a patient overeats only at supper, they might take a dose about 3–4 hours prior to that meal. If their problem is from after lunch until bedtime, they might take a dose after breakfast, after lunch, and before or after supper, all by trial and error, to find the optimal timing. Different amounts of naltrexone also may be administered at different times, depending on a patient's response to each dosage at each time. If the patient experiences carbohydrate cravings at all waking hours, the patient might take a slow-release (extended-release) or timed-release dose at bedtime that would ideally cover the next morning, or take a dose in the middle of the night if the patient awakens to urinate, as many do. The patient then might take additional doses upon arising, before lunch, mid-afternoon, and after supper or a slow-release dose upon arising. […] Finding what works for any given patient's particular pattern of overeating or carbohydrate craving is trial and error. If a patient's problem is only at dinner when they eat out, then they might take the naltrexone about 3–4 hours before the planned dinnertime only on such days.
# [4] = tested on: eating behavior in humans; settings: cited from earlier work
# [5] = tested on: squirrel monkeys; settings: cited from earlier work
# [6] = tested on: patients; test: Side effects of low-dose naltrexone therapy in patients; format: in vivo, human
# Description: These effects included tiredness, headache, nausea, impaired libido, diminished pleasure in daily activities and difficulty concentrating on complex tasks. Such problems nearly always occur after the first dose or a dosage increase. When they occur, the dose of naltrexone must either be lowered or naltrexone therapy must be discontinued if lower doses are ineffective.
# Another side effect that some patients relate is a feeling of mental confusion that impairs concentration upon difficult tasks. Like a headache, this effect is unacceptable. For this reason, a patient typically is started on a very low dose—for example, and without limitation, 1 mg capsules—and the amount of each dose is then increased or decreased until an effective level is reached at which the patient experiences no side effects.
# (§1) For each patient described below, the patient was given an initial dose and the dose was then tailored to the patient. The dose of naltrexone was lowered when the patient experienced side effects, including headaches, nausea and/or difficulty concentrating on complex tasks, or if naltrexone is inadequately effective at a higher dose. […] Although “final” values are provided, the study continues unless termination is indicated. The following patients, as well as additional patients are currently being studied. All patients were treated for at least two months, unless released from the study due to adverse effects that were not relieved by reducing the dosage of naltrexone.
# [7] = tested on: food or carbohydrate craving in patients; test: Low-dose naltrexone patient study: subjective naltrexone efficacy rating (zero to ten) on food or carbohydrate craving; format: in vivo, human; design: key to naltrexone efficacy rating: 0 = no benefit on craving, 10 = no food/carbohydrate craving; settings: scale zero to ten
# Description: Fifty mg naltrexone tablets (REVIA) were ground, mixed with lactose and dispensed at lower doses into capsules by a compounding chemist according to standard methods in doses indicated in the following examples.
# as §1
# The “rating” of naltrexone efficacy is a subjective scale of zero to ten. A value of zero means that the patient experiences no beneficial effects upon food or carbohydrate craving when taking naltrexone. A value of ten means that the patient experiences no food or carbohydrate craving after taking naltrexone, and can maintain control even when a tantalizing carbohydrate-laden treat, such as a hot buttered roll, a cookie or ice cream, is placed in front of the patient, even when the patient is hungry. For diabetics, a value of eight or greater is considered a success. In contrast, for obese, non-diabetics, a value of six or greater is considered a success because carbohydrates need to be controlled, but not as diligently controlled as with diabetics.
# Of note, one patient who snacked between dinner and bedtime also had insomnia. […] Unless otherwise noted, all patients are diabetics. Patients who experienced a naltrexone efficacy rating of greater than or equal to 8 also experienced a suppression of both carbohydrate craving and any tendency to overeat, in general.
# [8] = patients, varies from person to person
structure (smiles),measurement,setting,value
"O=C1CC[C@@]2(O)[C@H]3Cc4ccc(O)c5c4[C@@]2(CCN3CC2CC2)[C@H]1O5 [naltrexone HCl, naltrexone hydrochloride]",effect on body weight,[1],reduces body weight in animals without evidence of drug tolerance
same,effect on cravings,[2]; 3 mg dose,cravings were curbed
same,effect on appetite,[2]; dose of 2 mg,appetite was unaffected
same,time covered by one small dose,[3]; certain patients,more than 24 hours
same,time at which efficacy is apparent,"[3]; patients, low dose of naltrexone",apparent by the second day of treatment
same,time naltrexone continues to work,[3]; [8],about six
same,time until naltrexone starts working after it is taken,[3]; [8],3 to 4 h
same,risk,[4]; DeZwaan et al. review,potential for liver damage
same,effect on sweet cravings,"[4]; humans, Yeomans II, 50 mg, compared to other food categories",sweet cravings were not reduced
same,effect on binge eating,"[4]; humans, one long-term study, 100 mg doses",binge eating was affected long-term
same,effect on food intake,"[4]; humans, single-dose studies, short-term doses of 50 mg or greater",affect food intake
same,anorexic effect,[5]; doses of 0.22 mg/kg,slight anorexic effect
same,anorexic effect,[5]; higher doses than 0.22 mg/kg,the anorexic effect was greater
same,side effects,"[6]; Patient 1, even at the final dosage (1 mg three times daily), discontinued treatment",headaches
same,side effects,"[6]; Patient 4, 8 mg twice daily adjusted to 25 mg three times daily, discontinued treatment",headaches
same,side effects,"[6]; Patient 12, even at the final dosage (4.5 mg), discontinued treatment",headaches
same,side effects,"[6]; Patient 15, final dose 0.25 mg twice daily",not at the final dose
same,side effects,"[6]; Patient 15, initial dose 0.75 mg twice daily","decreased libido, confusion, diminished animation and excessive loss of appetite"
same,side effects,"[6]; obese person, 3 mg dose",no headache
same,side effects,"[6]; obese person, dose of 2 mg",no headache
same,side effects,"[6]; obese person, one 4 mg capsule",headache
same,side effects,[6]; one patient who snacked between dinner and bedtime and had insomnia,made them tired
same,naltrexone efficacy rating,"[7]; Patient 1, diabetic, 207.5 lbs, 12.5 mg twice daily tailored to 1 mg three times daily",≥ 8
same,naltrexone efficacy rating,"[7]; Patient 2, diabetic, 256 lbs, 12.5 mg/d tailored to 12.5 mg four times per day",7 to 8
same,naltrexone efficacy rating,"[7]; Patient 3, diabetic, 252 lbs, 12.5 mg when eating out tailored to 2 mg twice daily",≥ 8
same,naltrexone efficacy rating,"[7]; Patient 4, non-diabetic patient, 183 lbs, 8 mg twice daily adjusted to 25 mg three times daily",4
same,naltrexone efficacy rating,"[7]; Patient 5, diabetic, 162 lbs, 8 mg after lunch, unchanged",10
same,naltrexone efficacy rating,"[7]; Patient 6, diabetic, 204 lbs, 6 mg twice daily tailored to 1 mg twice a day",10
same,naltrexone efficacy rating,"[7]; Patient 7, polycystic ovarian syndrome, 170 lbs, 6 mg three times daily tailored to 36 mg/d",8 to 9
same,naltrexone efficacy rating,"[7]; Patient 8, diabetic, 182 lbs, 8 mg after lunch tailored to 8 mg four times daily",9.5
same,naltrexone efficacy rating,"[7]; Patient 9, diabetic, 106 lbs, 25 mg/d tailored to 50 mg/d, low doses not tried",< 8
same,naltrexone efficacy rating,"[7]; Patient 10, diabetic, 161 lbs, 12.5 mg three times daily adjusted to 50 mg three times daily, doses less than 12.5 mg not tried",zero
same,naltrexone efficacy rating,"[7]; Patient 11, diabetic, 183 lbs, 8 mg/d tailored to 32 mg/d",≥ 8
same,naltrexone efficacy rating,"[7]; Patient 12, diabetic, 114 lbs, 4 mg after lunch tailored to 4.5 mg",zero
same,naltrexone efficacy rating,"[7]; Patient 13, diabetic, 208 lbs, 5 mg three times per day tailored to 8 mg twice per day",8.5
same,carbohydrate craving rating,"[7]; Patient 14, diabetic, 226.5 lbs, 0.1 mg nine times per day adjusted to 50 mg three times daily",zero
same,naltrexone efficacy rating,"[7]; Patient 15, diabetic, 184.25 lbs, 0.75 mg twice daily tailored to 0.25 mg twice daily",10

# From patent US6972291B2, “Method for reducing food intake” (priority 2002, dated 2005)
